Assay results taken from patent publication US20230150974A1 (Foghorn Therapeutics Inc., priority 2020, published 2023).
Read-outs that look alike come from different tables or passages of the source.

Experiments:
[1] = biological target: T1, HiBiT-BRM (Homo sapiens, UniProt P51531); assay: HiBiT-BRM cell-based degradation assay (Nano-Glo HiBiT Lytic Detection)
T1 construct: expressed in transfected cells
Experimental: (§1) Procedure: A stable HeLa cell line expressing HiBiT-BRM was generated. On day 0, 5000 cells were seeded in 40 μL of media into each well of 384-well cell culture plates. […] Subsequently plates were incubated for 24 h in a standard tissue culture incubator and equilibrated at room temperature for 15 minutes. Nano-Glo HiBiT Lytic Detection System (Promega N3050) reagent was freshly prepared and 20 ul was added to each well. Upon addition of this LgBit-containing reagent, the HiBiT and LgBiT proteins associate to form the luminescent NanoBiT luciferase. The plates were shaken for 10 minutes at room temperature and the bioluminescence read using an EnVision plate reader (PerkinElmer).
(§2) The degradation % was calculated using the following formula: % degradation=100%−100%×(LumSample−LumLC)/(LumHC−LumLC). DMSO treated cells are employed as High Control (HC) and 2 μM of a known BRM/BRG1 degrader standard treated cells are employed as Low Control (LC).

[2] = biological target: T2, HiBit-BRG1 (Homo sapiens, UniProt P51532); assay: HiBit-BRG1 cell-based degradation assay (Nano-Glo HiBiT Lytic Detection)
T2 construct: expressed in transfected cells
T2 sequence (P51532 whole entry): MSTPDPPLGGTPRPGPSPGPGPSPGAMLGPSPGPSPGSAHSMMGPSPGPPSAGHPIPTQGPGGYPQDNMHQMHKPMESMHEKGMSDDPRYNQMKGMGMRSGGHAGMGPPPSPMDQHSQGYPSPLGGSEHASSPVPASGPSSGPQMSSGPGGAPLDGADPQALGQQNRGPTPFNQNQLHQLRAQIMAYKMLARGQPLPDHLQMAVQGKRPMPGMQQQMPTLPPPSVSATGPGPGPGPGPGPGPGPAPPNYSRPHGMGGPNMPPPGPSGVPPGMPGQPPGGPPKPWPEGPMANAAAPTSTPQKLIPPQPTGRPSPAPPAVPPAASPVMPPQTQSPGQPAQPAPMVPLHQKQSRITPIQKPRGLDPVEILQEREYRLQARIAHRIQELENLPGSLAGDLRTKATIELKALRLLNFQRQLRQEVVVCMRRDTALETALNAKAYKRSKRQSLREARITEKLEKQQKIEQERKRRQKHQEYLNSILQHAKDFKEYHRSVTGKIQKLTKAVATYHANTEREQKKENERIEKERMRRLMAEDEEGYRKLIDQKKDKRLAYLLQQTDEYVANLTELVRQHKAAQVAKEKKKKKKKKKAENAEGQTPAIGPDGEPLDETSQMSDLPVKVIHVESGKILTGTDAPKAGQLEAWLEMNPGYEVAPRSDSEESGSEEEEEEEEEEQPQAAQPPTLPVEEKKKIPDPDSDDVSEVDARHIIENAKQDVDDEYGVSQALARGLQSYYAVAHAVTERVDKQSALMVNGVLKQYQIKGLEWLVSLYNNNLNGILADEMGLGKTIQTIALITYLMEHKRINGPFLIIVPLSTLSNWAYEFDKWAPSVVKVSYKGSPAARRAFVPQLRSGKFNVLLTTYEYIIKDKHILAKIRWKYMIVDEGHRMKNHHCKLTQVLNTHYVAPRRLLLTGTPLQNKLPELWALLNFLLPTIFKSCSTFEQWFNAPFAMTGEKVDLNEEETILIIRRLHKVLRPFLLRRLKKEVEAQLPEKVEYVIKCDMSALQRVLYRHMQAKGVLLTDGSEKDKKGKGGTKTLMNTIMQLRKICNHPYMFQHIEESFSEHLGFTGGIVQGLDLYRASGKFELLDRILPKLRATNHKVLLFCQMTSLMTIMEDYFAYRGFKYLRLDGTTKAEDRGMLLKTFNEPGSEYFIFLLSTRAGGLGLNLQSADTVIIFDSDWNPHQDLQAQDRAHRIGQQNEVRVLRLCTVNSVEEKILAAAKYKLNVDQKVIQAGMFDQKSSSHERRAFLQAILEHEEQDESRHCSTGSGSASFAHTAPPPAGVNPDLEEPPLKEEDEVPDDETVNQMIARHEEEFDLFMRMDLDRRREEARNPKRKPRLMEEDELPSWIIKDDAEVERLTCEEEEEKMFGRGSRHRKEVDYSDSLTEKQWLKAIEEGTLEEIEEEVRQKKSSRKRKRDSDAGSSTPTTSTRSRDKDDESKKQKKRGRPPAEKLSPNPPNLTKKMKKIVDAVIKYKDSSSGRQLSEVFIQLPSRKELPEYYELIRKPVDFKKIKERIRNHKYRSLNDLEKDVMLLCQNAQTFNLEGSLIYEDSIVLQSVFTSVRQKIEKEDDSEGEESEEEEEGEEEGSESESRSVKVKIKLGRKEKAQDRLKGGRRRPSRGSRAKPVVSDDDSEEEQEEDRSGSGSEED
Experimental: as §1
For measurement of BRG1 degradation, a stable HeLa cell line expressing HiBit-BRG1 and LgBit was generated. The same protocol as above was then followed.
as §2

[3] = HeLa cells expressing HiBiT-BRM, 24 h
[4] = HeLa cells expressing HiBiT-BRM, 24 h; read-out: BRM HiBit Degradation IC50
[5] = HeLa cells expressing HiBit-BRG1 and LgBit, 24 h; read-out: BRG1 HiBit Degradation IC50
[6] = HeLa cells expressing HiBit-BRG1 and LgBit, 24 h; read-out: BRG1 HiBit Degradation Maximum (%)

T1 sequence (P51531 whole entry): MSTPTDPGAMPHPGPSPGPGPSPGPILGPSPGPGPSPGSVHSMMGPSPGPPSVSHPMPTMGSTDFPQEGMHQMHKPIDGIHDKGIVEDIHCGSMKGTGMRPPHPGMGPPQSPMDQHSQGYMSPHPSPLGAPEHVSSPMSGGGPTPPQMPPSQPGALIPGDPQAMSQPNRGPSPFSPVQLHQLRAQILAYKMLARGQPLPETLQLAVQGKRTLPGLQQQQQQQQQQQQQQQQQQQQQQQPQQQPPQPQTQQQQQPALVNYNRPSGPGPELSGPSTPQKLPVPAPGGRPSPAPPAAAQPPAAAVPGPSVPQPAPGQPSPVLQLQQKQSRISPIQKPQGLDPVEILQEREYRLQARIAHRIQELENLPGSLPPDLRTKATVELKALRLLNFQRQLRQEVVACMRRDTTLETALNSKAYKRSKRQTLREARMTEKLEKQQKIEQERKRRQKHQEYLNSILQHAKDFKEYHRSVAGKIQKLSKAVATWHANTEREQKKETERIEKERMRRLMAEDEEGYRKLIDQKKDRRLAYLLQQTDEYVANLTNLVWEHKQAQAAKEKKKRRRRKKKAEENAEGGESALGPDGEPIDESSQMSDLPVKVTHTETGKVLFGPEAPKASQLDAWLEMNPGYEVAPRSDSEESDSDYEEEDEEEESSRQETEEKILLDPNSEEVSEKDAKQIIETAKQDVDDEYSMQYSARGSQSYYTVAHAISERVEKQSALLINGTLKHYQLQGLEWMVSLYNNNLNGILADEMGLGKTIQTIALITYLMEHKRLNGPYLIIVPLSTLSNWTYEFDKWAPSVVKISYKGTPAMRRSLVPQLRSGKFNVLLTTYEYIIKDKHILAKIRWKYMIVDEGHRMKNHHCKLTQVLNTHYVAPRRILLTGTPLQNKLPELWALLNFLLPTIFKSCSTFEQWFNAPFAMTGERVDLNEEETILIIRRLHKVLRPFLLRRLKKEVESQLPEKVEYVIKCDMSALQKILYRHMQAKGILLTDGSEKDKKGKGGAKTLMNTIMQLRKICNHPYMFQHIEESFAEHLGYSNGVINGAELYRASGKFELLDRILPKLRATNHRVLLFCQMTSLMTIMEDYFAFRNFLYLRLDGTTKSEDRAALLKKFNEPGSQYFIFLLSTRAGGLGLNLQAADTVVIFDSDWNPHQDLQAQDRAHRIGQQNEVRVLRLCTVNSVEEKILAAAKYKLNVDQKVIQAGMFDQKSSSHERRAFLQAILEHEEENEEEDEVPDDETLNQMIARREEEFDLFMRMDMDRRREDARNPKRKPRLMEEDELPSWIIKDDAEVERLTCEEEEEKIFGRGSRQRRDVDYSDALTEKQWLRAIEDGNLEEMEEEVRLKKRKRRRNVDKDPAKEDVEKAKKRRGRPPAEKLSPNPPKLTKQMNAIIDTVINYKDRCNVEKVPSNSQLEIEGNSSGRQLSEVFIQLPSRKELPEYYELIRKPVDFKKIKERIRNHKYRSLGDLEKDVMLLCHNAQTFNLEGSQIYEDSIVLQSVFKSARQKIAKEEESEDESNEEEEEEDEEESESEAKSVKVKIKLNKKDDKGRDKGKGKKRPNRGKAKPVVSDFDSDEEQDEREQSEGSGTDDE

Row | SMILES | BRM HiBit Degradation Maximum (%) [1, 3] | DC50 [1, 4] [µM] | DC50 [2, 5] [µM] | Dmax [2, 6] [%] | DC50 ([1]; read-out: BRM HiBit Degradation IC50; HeLa cells expressing HiBiT-BRM, 24 h) [µM] | DC50 ([2]; read-out: BRG1 HiBit Degradation IC50; HeLa cells expressing HiBit-BRG1 and LgBit, 24 h) [µM]
1 | CCN(CCc1ccc(C(=O)NCCCCCCCCCC(=O)N[C@H](C(=O)N2C[C@H](O)C[C@H]2C(=O)NCc2ccc(-c3scnc3C)cc2)C(C)(C)C)cc1)c1cc(-c2ccccc2O)nnc1N (racemic) [Compound 144, (2S,4R)-1-((S)-2-(10-(4-(2-((3-amino-6-(2-hydroxyphenyl)pyridazin-4-yl)(ethyl)amino)ethyl)benzamido)decanamido)-3,3-dimethylbutanoyl)-4-hydroxy-N-(4-(4-methylthiazol-5-yl)benzyl)pyrrolidine-2-carboxamide] | A (“A” indicates maximum degradation ≥75%) | > 0.1 | > 1 | < 50 | – | –
2 | Cc1ncsc1-c1ccc(CNC(=O)[C@H]2C[C@H](O)CN2C(=O)[C@H](NC(=O)CCCCCNC(=O)c2ccc(CCOc3cc(-c4ccccc4O)nnc3N)cc2)C(C)(C)C)cc1 (stereo in doubt) [Compound 53, (2R,4S)-1-((R)-2-(6-(4-(2-((3-amino-6-(2-hydroxyphenyl)pyridazin-4-yl)oxy)ethyl)benzamido)hexanamido)-3,3-dimethylbutanoyl)-4-hydroxy-N-(4-(4-methylthiazol-5-yl)benzyl)pyrrolidine-2-carboxamide] | C (“C” indicates maximum degradation <50%) | > 1 | > 1 | < 50 | – | –
3 | Cc1ncsc1-c1ccc(CNC(=O)[C@H]2C[C@H](O)CN2C(=O)[C@H](NC(=O)COCCOCCNC(=O)c2ccc(CCOc3cc(-c4ccccc4O)nnc3N)cc2)C(C)(C)C)cc1 (stereo in doubt) [Compound 59, (2R,4S)-1-[(2R)-2-[2-[2-(2-[[4-(2-[[3-amino-6-(2-hydroxyphenyl)pyridazin-4-yl]oxy]ethyl)phenyl]formamido]ethoxy)ethoxy]acetamido]-3,3-dimethylbutanoyl]-4-hydroxy-N-[[4-(4-methyl-1,3-thiazol-5-yl)phenyl]methyl]pyrrolidine-2-carboxamide] | B (“B” indicates maximum degradation ≥50%) | > 1 | > 1 | < 50 | – | –
4 | Cc1ncsc1-c1ccc(CNC(=O)[C@H]2C[C@H](O)CN2C(=O)[C@H](NC(=O)COCCOCCOCCNC(=O)c2ccc(CCOc3cc(-c4ccccc4O)nnc3N)cc2)C(C)(C)C)cc1 (stereo in doubt) [Compound 60, (2R,4S)-1-[(2R)-2-(2-[2-[2-(2-[[4-(2-[[3-amino-6-(2-hydroxyphenyl)pyridazin-4-yl]oxy]ethyl)phenyl]formamido]ethoxy)ethoxy]ethoxy]acetamido)-3,3-dimethylbutanoyl]-4-hydroxy-N-[[4-(4-methyl-1,3-thiazol-5-yl)phenyl]methyl]pyrrolidine-2-carboxamide] | B (“B” indicates maximum degradation ≥50%) | > 1 | > 1 | < 50 | – | –
5 | Cc1ncsc1-c1ccc(CNC(=O)[C@H]2C[C@H](O)CN2C(=O)[C@H](NC(=O)CCCCCNC(=O)CN2CCN(c3cc(-c4ccccc4O)nnc3N)CC2)C(C)(C)C)cc1 (stereo in doubt) [Compound 101, (2R,4S)-1-[(2R)-2-[6-(2-[4-[3-amino-6-(2-hydroxyphenyl)pyridazin-4-yl]piperazin-1-yl]acetamido)hexanamido]-3,3-dimethylbutanoyl]-4-hydroxy-N-[[4-(4-methyl-1,3-thiazol-5-yl)phenyl]methyl]pyrrolidine-2-carboxamide] | B (“B” indicates maximum degradation ≥50%) | > 1 | > 1 | < 50 | – | –
6 | Nc1nnc(-c2ccccc2O)cc1OCCc1ccc(CNC(=O)CCCCNc2cccc3nnn(C4CCC(=O)NC4=O)c(=O)c23)cc1 (centres unmarked) [Compound 1, N-(4-(2-((3-amino-6-(2-hydroxyphenyl)pyridazin-4-yl)oxy)ethyl)benzyl)-5-((3-(2,6-dioxopiperidin-3-yl)-4-oxo-3,4-dihydrobenzo[d][1,2,3]triazin-5-yl)amino)pentanamide] | – | > 0.1 | > 1 | – | – | –
7 | Nc1nnc(-c2ccccc2O)cc1OCCc1ccc(CNC(=O)CCCCNc2cccc3c2CN(C2CCC(=O)NC2=O)C3=O)cc1 (centres unmarked) [Compound 2, N-(4-(2-((3-amino-6-(2-hydroxyphenyl)pyridazin-4-yl)oxy)ethyl)benzyl)-5-((2-(2,6-dioxopiperidin-3-yl)-1-oxoisoindolin-4-yl)amino)pentanamide] | C (“C” indicates maximum degradation <50%) | > 1 | > 1 | – | – | –
8 | Nc1nnc(-c2ccccc2O)cc1OCCc1ccc(CNCCN2CCN(c3ccc4c(c3)C(=O)N(C3CCC(=O)NC3=O)C4=O)CC2)cc1 (centres unmarked) [Compound 3, 5-(4-(2-((4-(2-((3-amino-6-(2-hydroxyphenyl)pyridazin-4-yl)oxy)ethyl)benzyl)amino)ethyl)piperazin-1-yl)-2-(2,6-dioxopiperidin-3-yl)isoindoline-1,3-dione] | C (“C” indicates maximum degradation <50%) | > 1 | > 1 | < 50 | – | –
9 | Nc1nnc(-c2ccccc2O)cc1OCCc1ccc(CNC(=O)CCCCNc2cccc3c2C(=O)N(C2CCC(=O)NC2=O)C3=O)cc1 (centres unmarked) [Compound 4, N-[[4-(2-[[3-amino-6-(2-hydroxyphenyl)pyridazin-4-yl]oxy]ethyl)phenyl]methyl]-5-[[2-(2,6-dioxopiperidin-3-yl)-1,3-dioxoisoindol-4-yl]amino]pentanamide] | B (“B” indicates maximum degradation ≥50%) | > 0.1 | > 1 | – | – | –
10 | Nc1nnc(-c2ccccc2O)cc1OCCc1ccc(CNC(=O)CCCCOc2ccc3c(c2)C(=O)N(C2CCC(=O)NC2=O)C3=O)cc1 (centres unmarked) [Compound 5, N-(4-(2-((3-amino-6-(2-hydroxyphenyl)pyridazin-4-yl)oxy)ethyl)benzyl)-5-((2-(2,6-dioxopiperidin-3-yl)-1,3-dioxoisoindolin-5-yl)oxy)pentanamide] | C (“C” indicates maximum degradation <50%) | > 1 | > 1 | – | – | –
11 | Nc1nnc(-c2ccccc2O)cc1OCCc1ccc(C(=O)NCCCCCCCCCCCCCCC(=O)NCc2ccc(S(=O)(=O)Nc3cccc4c(Cl)c[nH]c34)cc2)cc1 [Compound 6, 15-[[4-(2-[[3-amino-6-(2-hydroxyphenyl)pyridazin-4-yl]oxy]ethyl)phenyl]formamido]-N-([4-[(3-chloro-1H-indol-7-yl)sulfamoyl]phenyl]methyl)pentadecanamide] | C (“C” indicates maximum degradation <50%) | > 1 | > 1 | < 50 | – | –
12 | Nc1nnc(-c2ccccc2O)cc1OCCc1ccc(CNC(=O)C2CC2CNC(=O)COc2cccc3c2C(=O)N(C2CCC(=O)NC2=O)C3=O)cc1 (centres unmarked) [Compound 7, N-[[4-(2-[[3-amino-6-(2-hydroxyphenyl)pyridazin-4-yl]oxy]ethyl)phenyl]methyl]-2-[(2-[[2-(2,6-dioxopiperidin-3-yl)-1,3-dioxoisoindol-4-yl]oxy]acetamido)methyl]cyclopropane-1-carboxamide] | C (“C” indicates maximum degradation <50%) | > 1 | > 1 | < 50 | – | –
13 | Nc1nnc(-c2ccccc2O)cc1OCCc1ccc(CNC(=O)NCCCOc2cccc3c2C(=O)N(C2CCC(=O)NC2=O)C3=O)cc1 (centres unmarked) [Compound 8, 1-(4-(2-((3-amino-6-(2-hydroxyphenyl)pyridazin-4-yl)oxy)ethyl)benzyl)-3-(3-((2-(2,6-dioxopiperidin-3-yl)-1,3-dioxoisoindolin-4-yl)oxy)propyl)urea] | B (“B” indicates maximum degradation ≥50%) | – | – | – | > 1 | > 1
14 | Nc1nnc(-c2ccccc2O)cc1OCCc1ccc(CNCCCCCOc2cccc3c2C(=O)N(C2CCC(=O)NC2=O)C3=O)cc1 (centres unmarked) [Compound 9, 4-[[5-([[4-(2-[[3-amino-6-(2-hydroxyphenyl)pyridazin-4-yl]oxy]ethyl)phenyl]methyl]amino)pentyl]oxy]-2-(2,6-dioxopiperidin-3-yl)isoindole-1,3-dione] | A (“A” indicates maximum degradation ≥75%) | > 0.1 | > 1 | – | – | –
15 | CN(Cc1ccc(CCOc2cc(-c3ccccc3O)nnc2N)cc1)C(=O)CCCCOc1cccc2c1C(=O)N(C1CCC(=O)NC1=O)C2=O (centres unmarked) [Compound 10, N-(4-(2-((3-amino-6-(2-hydroxyphenyl)pyridazin-4-yl)oxy)ethyl)benzyl)-5-((2-(2,6-dioxopiperidin-3-yl)-1,3-dioxoisoindolin-4-yl)oxy)-N-methylpentanamide] | C (“C” indicates maximum degradation <50%) | > 1 | > 1 | < 50 | – | –
